{
  "source": "patent US9969758B2",
  "about": "“Antimicrobial compounds” (BIOMERIEUX, priority 2014, dated 2018)",
  "experiment_in_all_cases": "MIC by agar dilution, single strains",
  "type_in_all_cases": "cell-based",
  "key": {"[1]": {"tested_on": "Staphylococci epidermidis NCTC 11047", "conditions": "22 hours of incubation, read-out: Minimum inhibitory concentration (MIC)", "protocol": "(§1) Determining the minimum inhibitory concentrations (MIC). All the MICs were determined using an agar dilution method. This required use of a medium without a defined antagonist (peptone-free), prepared as described previously with the inclusion of 2% horse blood lysed with saponin, 25.0 μg/mL of NAD and 25.0 μg/mL of hemin [17]. The compounds tested were dissolved in sterile deionised water and incorporated into the agar medium in a concentration range of 0.0031 to 8.0 μg/mL (0.016 to 32 μg/mL for gram-positive bacteria). All the isolates were prepared at a density equivalent to 0.5 McFarland units in sterile deionised water using a densitometer (approximately 1.5×10^8 CFU/mL), and then diluted to 1 for 15. An aliquot of 1 μL of each diluted suspension was then placed onto plates with a multispot inoculator to give the final recommended inoculation of 10 000 CFU/spot. The MICs of fosfomycin were determined by the same method, except that the IsoSensitest medium (Oxoid, Basingstoke, United Kingdom) was used, plus 25.0 μg/mL of glucose-6-phosphate (Sigma, Poole, United Kingdom) and an extended range of fosfomycin concentrations. All the dishes (including the antimicrobial-free controls) were incubated for 22 hours at 37° C. All the tests were performed on at least two independent replicates in order to examine the reproducibility."}, "[2]": {"tested_on": "Staphylococcus aureus NCTC 11939 (SARM)", "conditions": "NCTC11939, 22 hours of incubation, read-out: Minimum inhibitory concentration (MIC)", "protocol": "as §1"}, "[3]": {"tested_on": "Enterococcus faecium NCTC 7171", "conditions": "NCTC7171, 22 hours of incubation, read-out: Minimum inhibitory concentration (MIC)", "protocol": "as §1"}, "[4]": {"tested_on": "Enterobacter cloacae NCTC 11936", "conditions": "NCTC11936, 22 hours of incubation, read-out: Minimum inhibitory concentration (MIC)", "protocol": "as §1"}, "[5]": {"tested_on": "Klebsiella pneumoniae NCTC 9528", "conditions": "NCTC9528, 22 hours of incubation, read-out: Minimum inhibitory concentration (MIC)", "protocol": "as §1"}, "[6]": {"tested_on": "Serratia marcescens NCTC 10211", "conditions": "NCTC10211, 22 hours of incubation, read-out: Minimum inhibitory concentration (MIC)", "protocol": "as §1"}, "[7]": {"tested_on": "Staphylococcus aureus NCTC 6571", "conditions": "NCTC6571, 22 hours of incubation, read-out: Minimum inhibitory concentration (MIC)", "protocol": "as §1"}, "[8]": {"tested_on": "Yersinia enterocolitica NCTC 11176", "conditions": "NCTC11176, 22 hours of incubation, read-out: Minimum inhibitory concentration (MIC)", "protocol": "as §1"}, "[9]": {"tested_on": "Acinetobacter baumannii ATCC 19606", "conditions": "ATCC19606, 22 hours of incubation, read-out: Minimum inhibitory concentration (MIC)", "protocol": "as §1"}, "[10]": {"tested_on": "Providencia rettgeri NCTC 7475", "conditions": "NCTC7475, 22 hours of incubation, read-out: Minimum inhibitory concentration (MIC)", "protocol": "as §1"}, "[11]": {"tested_on": "Escherichia coli NCTC 10418", "conditions": "NCTC10418, 22 hours of incubation, read-out: Minimum inhibitory concentration (MIC)", "protocol": "as §1"}, "[12]": {"tested_on": "Listeria monocytogenes NCTC 11994", "conditions": "NCTC11994, 22 hours of incubation, read-out: Minimum inhibitory concentration (MIC)", "protocol": "as §1"}, "[13]": {"tested_on": "Burkholderia cepacia ATCC 25416", "conditions": "ATCC25416, 22 hours of incubation, read-out: Minimum inhibitory concentration (MIC)", "protocol": "as §1"}, "[14]": {"tested_on": "Escherichia coli NCTC 12241", "conditions": "NCTC12241, 22 hours of incubation, read-out: Minimum inhibitory concentration (MIC)", "protocol": "as §1"}, "[15]": {"tested_on": "Enterococcus faecalis NCTC 775", "conditions": "NCTC775, 22 hours of incubation, read-out: Minimum inhibitory concentration (MIC)", "protocol": "as §1"}, "[16]": {"tested_on": "Salmonella enteritidis NCTC 6676", "conditions": "Salmonella enterica, 22 hours of incubation, read-out: Minimum inhibitory concentration (MIC)", "protocol": "as §1"}, "[17]": {"tested_on": "Pseudomonas aeruginosa NCTC 10662", "conditions": "NCTC10662, 22 hours of incubation, read-out: Minimum inhibitory concentration (MIC)", "protocol": "as §1"}, "[18]": {"tested_on": "Salmonella typhimurium NCTC 74", "conditions": "Salmonella enterica, 22 hours of incubation, read-out: Minimum inhibitory concentration (MIC)", "protocol": "as §1"}},
  "data": [
    {"smiles": "CSCC[C@H](N)C(=O)N[C@@H](C)C(=O)NC(C)P(=O)(O)O", "note": "(stereo partly drawn) [compound J, L-methionyl-L-alanyl-D/L fosfalin]", "values": [
      {"measurement": "MIC", "setting": "[1]", "value": 2, "unit": "µg/mL"},
      {"measurement": "MIC", "setting": "[2]", "value": "> 8", "unit": "µg/mL"},
      {"measurement": "MIC", "setting": "[3]", "value": 4, "unit": "µg/mL"},
      {"measurement": "MIC", "setting": "[4]", "value": "> 8", "unit": "µg/mL"},
      {"measurement": "MIC", "setting": "[5]", "value": 0.5, "unit": "µg/mL"},
      {"measurement": "MIC", "setting": "[6]", "value": 0.5, "unit": "µg/mL"},
      {"measurement": "MIC", "setting": "[7]", "value": 1, "unit": "µg/mL"},
      {"measurement": "MIC", "setting": "[8]", "value": 0.5, "unit": "µg/mL"},
      {"measurement": "MIC", "setting": "[9]", "value": "> 8", "unit": "µg/mL"},
      {"measurement": "MIC", "setting": "[10]", "value": "> 8", "unit": "µg/mL"},
      {"measurement": "MIC", "setting": "[11]", "value": 2, "unit": "µg/mL"},
      {"measurement": "MIC", "setting": "[12]", "value": "> 8", "unit": "µg/mL"},
      {"measurement": "MIC", "setting": "[13]", "value": "> 8", "unit": "µg/mL"},
      {"measurement": "MIC", "setting": "[14]", "value": 2, "unit": "µg/mL"},
      {"measurement": "MIC", "setting": "[15]", "value": 0.125, "unit": "µg/mL"},
      {"measurement": "MIC", "setting": "[16]", "value": "> 8", "unit": "µg/mL"},
      {"measurement": "MIC", "setting": "[17]", "value": "> 8", "unit": "µg/mL"},
      {"measurement": "MIC", "setting": "[18]", "value": "> 8", "unit": "µg/mL"}
    ]}
  ]
}
